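Growth conditions: 96-well plates. Treatment: test compound, 48 hours, 5 concentrations. Analysis: linear interpolation between bracketing concentrations; unreached endpoints set to highest concentration. Abbreviation: GI50, concentration required for 50% inhibition of growth. TGI denotes the concentration required for complete inhibition of growth.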
How the values were obtained:
Test in all cases: NCI-60 cell line screen, 48 h
UO-31 renal = system: UO-31 renal
U251 CNS = system: U251 CNS
MALME-3M melanoma = system: MALME-3M melanoma
DLD-1 colon = system: DLD-1 colon
SK-MEL-2 melanoma = system: SK-MEL-2 melanoma
HCT-116 colon = system: HCT-116 colon
SF-539 CNS = system: SF-539 CNS
HOP-92 NSCLC = system: HOP-92 NSCLC
OVCAR-5 ovarian = system: OVCAR-5 ovarian
NCI-H23 lung = system: NCI-H23 lung

Row | Compound | TGI (UO-31 renal) | TGI (U251 CNS) | TGI (MALME-3M melanoma) | TGI (DLD-1 colon) | TGI (SK-MEL-2 melanoma) | TGI (HCT-116 colon) | TGI (SF-539 CNS) | GI50 (UO-31 renal) | GI50 (U251 CNS) | GI50 (MALME-3M melanoma) | GI50 (HOP-92 NSCLC) | TGI (HOP-92 NSCLC) | GI50 (SK-MEL-2 melanoma) | GI50 (HCT-116 colon) | GI50 (OVCAR-5 ovarian) | TGI (OVCAR-5 ovarian) | GI50 (SF-539 CNS) | GI50 (NCI-H23 lung) | TGI (NCI-H23 lung)
1 | O=C(c1ccccc1)C1CCCCN1C(=O)c1ccccc1 (configuration not stated) | > 100 µM | > 100 µM | > 100 µM | > 100 µM | > 100 µM | > 100 µM | > 100 µM | – | – | – | – | – | – | – | – | – | – | – | –
2 | COc1ccc(-c2nc3sc(-c4ccc(Cl)cc4)cn3n2)cc1 | 4.51 µM | 2.29 µM | > 50 µM | – | > 50 µM | 3.48 µM | 21.5 µM | 1.19 µM | 1.03 µM | 2.71 µM | 0.915 µM | 7.61 µM | > 50 µM | 1.21 µM | 2.78 µM | > 50 µM | 1.85 µM | 6.66 µM | > 50 µM
3 | COc1ccc(N2Cc3cnc(Nc4ccccc4)nc3N([C@@H]3CC[C@@H](O)C3)C2=O)cc1 | > 16.5 µM | > 25 µM | > 25 µM | – | 17.5 µM | > 25 µM | 5.41 µM | 0.869 µM | 1.01 µM | 6.89 µM | 1.16 µM | 10.7 µM | 5.21 µM | 2.84 µM | 5.54 µM | > 25 µM | 0.652 µM | 8.17 µM | > 25 µM
4 | CC1(C)C(=O)C(C)(C)C1=NN | > 100 µM | > 100 µM | > 100 µM | > 100 µM | – | > 100 µM | > 100 µM | – | – | – | – | > 100 µM | – | – | – | > 100 µM | – | – | > 100 µM
5 | C=CCN(/C=C1/C(=O)O[C@H](COC)[C@@]2(C)C1=C(O)C(=O)C1=C2[C@H](OC(C)=O)C[C@]2(C)C(=O)CC[C@@H]12)CC=C | > 10 µM | > 10 µM | > 10 µM | – | > 6.23 µM | > 10 µM | > 5.24 µM | 0.148 µM | 2.12 µM | 0.784 µM | 0.0783 µM | 1.57 µM | 1.22 µM | 1.17 µM | 1.08 µM | > 10 µM | 0.692 µM | > 5.65 µM | > 10 µM
6 | CSC(CC(=O)O)C(=O)O (configuration not stated) | > 100 µM | > 100 µM | > 100 µM | – | > 100 µM | > 100 µM | > 100 µM | – | – | – | – | > 100 µM | – | – | – | > 100 µM | – | – | > 100 µM
7 | C[C@H](NC(=O)[C@@H]1CSSC[C@@H](NC(=O)c2nc3ccccc3cc2O)C(=O)NCC(=O)N1C)c1ccccc1 | 13.3 µM | 7.46 µM | 14 µM | – | 10.1 µM | 5.15 µM | 9.13 µM | 5.76 µM | 2.38 µM | 6.08 µM | 9.69 µM | 18.6 µM | 2.55 µM | 1.63 µM | 4.35 µM | 12.1 µM | 1.63 µM | 5.14 µM | 12.6 µM
